Results on eleven compounds are retold here after ChEMBL document CHEMBL1201862, “PubChem BioAssay data set” (2004).

Structures are written as SMILES.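 Method: 48-hour compound exposure of cells in 96-well plates, five concentrations, linear interpolation of endpoints. At the GI50, growth is halved.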 Active and inactive are the calls of the source. No stated cut-off is given here; in the data, active = GI50 up to about 1.1 µM and inactive = higher.

Test systems include OVCAR-5; UACC-257; LOX IMVI; SK-MEL-2; 786-0; NCI-H460; HOP-62; Hs-578T; U-251; NCI-H522; SNB-75; SK-MEL-28; MOLT-4; HCT-15; HT-29; NCI-H23; NCI/ADR-RES; K562; A498; RPMI-8226.
Common to all, as to test: NCI-60 cell line screen, 48 h

As to `CC(=O)C1C(=O)C(=O)N(c2ccc(Br)cc2)C1=O` (centres undefined), the GI50 in the experiment on OVCAR-5, in the experiment with UACC-257, in the experiment with LOX IMVI, with SK-MEL-2, in the experiment with 786-0 and in the experiment on NCI-H460 was > 100 µM (inactive) each time. Also, the GI50 with HOP-62, in the experiment on Hs-578T, in the experiment with U-251, with NCI-H522, in the experiment on SNB-75 and in the experiment with SK-MEL-28 was > 100 µM (inactive) throughout. In addition, the GI50 in the experiment on MOLT-4 was > 100 µM (inactive); in the experiment with HCT-15 it was more than 100 µM; in the experiment on HT-29 it was > 100 µM (inactive); with NCI-H23, > 100 µM (inactive); in the experiment with NCI/ADR-RES, > 100 µM (inactive).

Regarding `COc1cc(Nc2nnc3n2S(=O)(=O)c2cc(C)c(Cl)cc2S3)cc(OC)c1`, the GI50 with K562 is 13.2 µM (inactive); in the experiment with OVCAR-5, 62.2 µM (inactive); in the experiment with UACC-257, 16.6 µM (inactive); with A498, 19.1 µM (inactive); in the experiment with 786-0, 4.22 µM (inactive); in the experiment on NCI-H460 it was 23.8 µM (inactive). Besides, the GI50 is 11.9 µM (inactive) in the experiment with HOP-62; 14.2 µM (inactive) in the experiment with Hs-578T; 10.9 µM (inactive) in the experiment with U-251; 2.87 µM (inactive) in the experiment on RPMI-8226; 2.61 µM (inactive) with NCI-H522; 26 µM (inactive) with SK-MEL-28. The GI50 with MOLT-4 was 4.29 µM (inactive); in the experiment with HCT-15, 17.7 µM; in the experiment with HT-29, 12.4 µM (inactive); with NCI-H23, 6.25 µM (inactive); in the experiment with NCI/ADR-RES, 15.6 µM (inactive).

As to `COc1ccc(/C=C2\NC(=S)N(CN3CCOCC3)C2=O)cc1`, the GI50 with K562 is > 100 µM (inactive); with OVCAR-5, > 100 µM (inactive); in the experiment with UACC-257, > 100 µM (inactive); in the experiment with LOX IMVI, > 100 µM (inactive); in the experiment on SK-MEL-2 it was > 100 µM (inactive); with A498, 26.1 µM (inactive). The GI50 in the experiment with 786-0, in the experiment with HOP-62, with Hs-578T, with U-251, in the experiment with RPMI-8226 and in the experiment with SNB-75 was > 100 µM (inactive) each time. For the same compound, the GI50 in the experiment on SK-MEL-28 was > 100 µM (inactive); with MOLT-4, > 100 µM (inactive); in the experiment with HCT-15, more than 100 µM; with HT-29, > 100 µM (inactive); in the experiment with NCI-H23 it was > 100 µM (inactive); with NCI/ADR-RES, > 100 µM (inactive).

`CCOC(=O)c1cn2c(n1)sc1cccc(C)c12`: the GI50 is > 100 µM (inactive) in the experiment on OVCAR-5; > 100 µM (inactive) in the experiment with UACC-257; > 100 µM (inactive) in the experiment on LOX IMVI; > 100 µM (inactive) in the experiment with 786-0; 71.8 µM (inactive) with NCI-H460; > 100 µM (inactive) with HOP-62. The GI50 with Hs-578T is 21.7 µM (inactive); in the experiment with NCI-H522 it was > 100 µM (inactive); with SNB-75, > 100 µM (inactive); in the experiment with HCT-15, more than 100 µM; with NCI-H23, > 100 µM (inactive); with NCI/ADR-RES, > 100 µM (inactive).

As for `Cc1ccc(-n2c(Cn3nnc(-c4cccnc4)n3)nn(C3OC(COC(=O)c4ccccc4)C(OC(=O)c4ccccc4)C3OC(=O)c3ccccc3)c2=S)cc1` (centres undefined), the GI50 with K562, in the experiment on OVCAR-5, with UACC-257, in the experiment on LOX IMVI, in the experiment on SK-MEL-2 and in the experiment on 786-0 was > 100 µM (inactive) in each case. The GI50 in the experiment with NCI-H460, with HOP-62, in the experiment on Hs-578T, in the experiment on U-251, in the experiment with RPMI-8226 and with NCI-H522 was > 100 µM (inactive) each time. Moreover, the GI50 is 52.6 µM (inactive) with SNB-75; > 100 µM (inactive) in the experiment with SK-MEL-28; > 100 µM (inactive) with MOLT-4; more than 100 µM with HCT-15; > 100 µM (inactive) in the experiment on HT-29; > 100 µM (inactive) in the experiment with NCI-H23. The GI50 with NCI/ADR-RES is > 100 µM (inactive).

Regarding `O=C1CSC(c2c[nH]c3ccccc23)N1c1cccc(Cl)c1` (centres undefined), the GI50 with K562 was 41 µM (inactive); with OVCAR-5, 73.8 µM (inactive); with UACC-257, > 100 µM (inactive); with SK-MEL-2, 30.1 µM (inactive); in the experiment with A498, 60.1 µM (inactive); in the experiment with 786-0 it was 25.5 µM (inactive). Also, the GI50 in the experiment on NCI-H460 is 37.6 µM (inactive); in the experiment with HOP-62 it was 54.7 µM (inactive); with Hs-578T, 38.4 µM (inactive); in the experiment on U-251, 37.2 µM (inactive); with RPMI-8226 it was 25.7 µM (inactive); with SNB-75, 46.7 µM (inactive). Also, the GI50 was > 100 µM (inactive) in the experiment with SK-MEL-28; 38.5 µM (inactive) in the experiment on MOLT-4; 40.4 µM in the experiment with HCT-15; 37.8 µM (inactive) in the experiment on HT-29; 54 µM (inactive) with NCI-H23; 36.1 µM (inactive) in the experiment on NCI/ADR-RES.

For `O=C(/C(=N\Nc1ccc([N+](=O)[O-])cc1[N+](=O)[O-])NC12CC3CC(CC(C3)C1)C2)C(Br)C(=O)c1ccccc1` (centres undefined), the GI50 in the experiment with K562 is 2.8 µM (inactive); with OVCAR-5, 5.4 µM (inactive); in the experiment on UACC-257, 1.88 µM (inactive); in the experiment on LOX IMVI, 2.43 µM (inactive); in the experiment with SK-MEL-2 it was 2.12 µM (inactive); in the experiment with A498 it was 2.71 µM (inactive). Also, the GI50 in the experiment with 786-0 is 3.21 µM (inactive); with NCI-H460, 3.61 µM (inactive); in the experiment with HOP-62, 2.74 µM (inactive); with Hs-578T, 4.67 µM (inactive); in the experiment with U-251 it was 2.85 µM (inactive); with RPMI-8226 it was 1.84 µM (inactive). Besides, the GI50 in the experiment on SNB-75 is 2.48 µM (inactive); with SK-MEL-28 it was 9.31 µM (inactive); in the experiment with MOLT-4, 3.52 µM (inactive); in the experiment with HCT-15 it was 4.99 µM; in the experiment on HT-29, 4.45 µM (inactive); in the experiment with NCI-H23, 3.33 µM (inactive). In addition, the GI50 in the experiment with NCI/ADR-RES is 3.23 µM (inactive).

With `Cc1ccc(S(=O)(=O)Oc2cc(N)c3c(n2)CCC3)cc1`, the GI50 in the experiment on K562 is 67 µM (inactive); in the experiment on OVCAR-5 it was > 100 µM (inactive); with UACC-257, 46.2 µM (inactive); in the experiment with LOX IMVI, > 100 µM (inactive); with SK-MEL-2 it was > 100 µM (inactive); in the experiment on A498, 69.2 µM (inactive). The GI50 with 786-0 was > 100 µM (inactive); with NCI-H460, > 100 µM (inactive); with HOP-62, > 100 µM (inactive); in the experiment with Hs-578T it was > 100 µM (inactive); with U-251, > 100 µM (inactive); with RPMI-8226 it was 24.3 µM (inactive). For the same compound, the GI50 with SNB-75 was > 100 µM (inactive); in the experiment with SK-MEL-28 it was > 100 µM (inactive); in the experiment on MOLT-4, 33.7 µM (inactive); in the experiment with HCT-15, more than 100 µM; in the experiment on HT-29, 48.3 µM (inactive); with NCI-H23, > 100 µM (inactive). The GI50 in the experiment on NCI/ADR-RES was 79.8 µM (inactive).

In the case of `N#CC1=C(N)Nc2nc3ccccc3n2C1c1ccccc1` (centres undefined), the GI50 in the experiment on K562 was 59.7 µM (inactive); in the experiment with OVCAR-5, > 100 µM (inactive); in the experiment on UACC-257, > 100 µM (inactive); in the experiment with LOX IMVI, 62.7 µM (inactive); with SK-MEL-2, 77.8 µM (inactive); with A498, 21.6 µM (inactive). Moreover, the GI50 with 786-0 is 34 µM (inactive); in the experiment with NCI-H460, 45.7 µM (inactive); with HOP-62 it was 88.1 µM (inactive); in the experiment on Hs-578T, 24.7 µM (inactive); in the experiment on U-251, 42.9 µM (inactive); with RPMI-8226, 6.41 µM (inactive). Besides, the GI50 is 49 µM (inactive) in the experiment with MOLT-4; 44.7 µM with HCT-15; 33.7 µM (inactive) in the experiment with HT-29; > 100 µM (inactive) with NCI-H23; > 100 µM (inactive) with NCI/ADR-RES.

Regarding `COc1ccc2c(c1OC(C)=O)C1=CC(=O)CCC13CCNC3C2` (centres undefined), the GI50 in the experiment on K562, in the experiment on OVCAR-5, in the experiment with UACC-257, in the experiment on LOX IMVI, in the experiment with SK-MEL-2 and in the experiment with 786-0 was > 100 µM (inactive) throughout. In addition, the GI50 in the experiment on NCI-H460, with HOP-62, in the experiment with Hs-578T, in the experiment with U-251, in the experiment on RPMI-8226 and with NCI-H522 was > 100 µM (inactive) each time. The GI50 in the experiment on SNB-75 is > 100 µM (inactive); with SK-MEL-28, > 100 µM (inactive); in the experiment on MOLT-4, > 100 µM (inactive); in the experiment with HCT-15 it was more than 100 µM; in the experiment with HT-29, > 100 µM (inactive); with NCI-H23 it was > 100 µM (inactive). For the same compound, in the experiment on NCI/ADR-RES, the GI50 is > 100 µM (inactive).

With `Fc1cccc(F)c1C1SCc2nc3ccc(Cl)cc3n21` (centres undefined), the GI50 in the experiment with K562 is 51.1 µM (inactive); in the experiment with OVCAR-5 it was > 100 µM (inactive); in the experiment with UACC-257, > 100 µM (inactive); with LOX IMVI it was > 100 µM (inactive); in the experiment on SK-MEL-2 it was > 100 µM (inactive); in the experiment with 786-0 it was > 100 µM (inactive). For the same compound, the GI50 in the experiment with NCI-H460 is > 100 µM (inactive); in the experiment with HOP-62, > 100 µM (inactive); in the experiment on Hs-578T, > 100 µM (inactive); in the experiment with U-251, > 100 µM (inactive); in the experiment on RPMI-8226, 82.4 µM (inactive); with NCI-H522, > 100 µM (inactive). Also, the GI50 in the experiment with SNB-75 is 41.1 µM (inactive); in the experiment with SK-MEL-28, > 100 µM (inactive); in the experiment on MOLT-4 it was > 100 µM (inactive); with HCT-15, more than 100 µM; in the experiment on HT-29 it was > 85.7 µM (inactive); in the experiment with NCI-H23, > 100 µM (inactive). In addition, the GI50 with NCI/ADR-RES is > 100 µM (inactive).
